The target of one assay is T1, hPTP1B1–400 (Homo sapiens, UniProt P18031).
T1 construct: h PTP1B 1–400 IC 50 (μM ± S.D); made in house
T1 sequence (P18031 1-400): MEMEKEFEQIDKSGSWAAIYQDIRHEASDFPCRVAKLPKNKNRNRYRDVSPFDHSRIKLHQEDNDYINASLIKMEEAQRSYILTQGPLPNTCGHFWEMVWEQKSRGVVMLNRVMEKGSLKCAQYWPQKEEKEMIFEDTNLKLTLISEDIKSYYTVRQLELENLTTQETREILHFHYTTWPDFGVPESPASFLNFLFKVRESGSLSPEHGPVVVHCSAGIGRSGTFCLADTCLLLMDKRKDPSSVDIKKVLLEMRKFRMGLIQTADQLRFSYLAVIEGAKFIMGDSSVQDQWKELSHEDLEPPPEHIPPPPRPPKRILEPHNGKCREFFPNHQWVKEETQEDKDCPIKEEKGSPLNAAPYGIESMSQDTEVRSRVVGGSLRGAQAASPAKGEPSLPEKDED
Briefly: Enzymatic kinetics studies (Lineweaver–Burk, model fitting). In kind it is biochemical. As to conditions: for inhibition type: hPTP1B1–400, best fit model; for Ki: hPTP1B1–400, pNPP 0.1–0.5 mM; for Km / Vmax: hPTP1B1–400 with inhibitor. The method, then:
Kinetic analyses were conducted using varying concentrations of substrate and inhibitor.
Five increasing concentrations of each inhibitor were tested, according to their previously determined IC50 values. The negative control was prepared by omitting the inhibitor in the presence of the enzyme and substrate. The Supporting Information includes detailed eqs (E1–E5) used to determine the kinetic parameters and mechanisms involved in PTP1B inhibition.
Equation 1 was used to obtain enzyme kinetic parameters by fitting data to the Michaelis-Menten model (Origin Pro
The equations defined for the following non-linear inhibition models were used to determine the mechanism of
PTP1B inhibition: competitive (E2), non-competitive (E3), uncompetitive (E4), and mixed (E5) (Origin Pro 2018 (64
(1+ ( ))(x05nh ) + (1+ ( )) (x05 nh)
Vmax is the maximum velocity, x is the substrate concentration, i is the inhibitor concentration, nh is the number of
Hill. Ki is the inhibition constant, and Km is the Michaelis constant.

The subject of another assay is HepG2 cells. Put plainly: Western blotting, HepG2 normal model. The format is cell-based, human. As to conditions: 24 h. The method, then:
HepG2 cells were obtained directly from ATCC (HB-8065) and cultured in DMEM with low glucose, supplemented with fetal bovine serum, 100 U/mL penicillin G, and […] streptomycin. The media was freshly prepared and sterilized by filtration. Cells were maintained with a maximum of 10 passages before being discarded. For cell counting, the cells were washed twice with phosphate-buffered saline (PBS), trypsinized, and counted using a Neubauer chamber. For the insulin-resistant model, 75,000 cells per well were seeded in 6-well plates at 37 °C in 5% CO2 and cultured for 72 h. Subsequently, insulin (0.1 μM) was added to induce insulin resistance for 24 h. After this period, inhibitors were incubated for 24 h, followed by a final 30 min insulin stimulation (0.1 μM) before protein extraction. For the normal model, 75,000 cells per well were seeded in 6-well plates at 37 °C in 5% CO2 and cultured for 96 h. After that, the cells were incubated with the inhibitors for 24 h, followed by protein extraction.
Treated cells were washed twice with 1 mL of PBS, and proteins were extracted using 300 μL of a buffer solution containing 10% sodium deoxycholate in 10% TEAB, supplemented with a protease and phosphatase inhibitor cocktail. The extracts were heated at 80 °C for 5 min and dissociated by repeated passages through an insulin syringe. The cell extracts were centrifuged at 15,000 rpm for 15 min at 4 °C, and the supernatant was collected. Protein quantification was performed using the bicinchoninic acid assay, and aliquots were prepared for Western blotting. SDS-PAGE was conducted, and proteins were transferred onto a nitrocellulose membrane. The membrane was blocked with 10% skim milk in TBST for 1 h and incubated overnight with primary antibodies (1:400 dilution). Secondary antibodies conjugated to horseradish peroxidase were diluted 1:2,000, and the membranes were incubated for 1 h at room temperature. Blots were visualized using the ChemiDoc MP (Bio-Rad), and densitometric analysis was performed with ImageJ (U.S. National Institutes of Health). Statistical analyses were conducted using GraphPad Prism 8.0.
compounds at 24 h of treatment. β-actin was employed as loading control. b) Densitometric analysis of western blot images
employing ImageJ analysis software. Bar graphs represent the mean ± SEM of normalized values. The control levels were set to
1. Asterisks indicate statistical significance according to the Dunn test. p* < 0.05
(1 picture or pasted object on this page, not shown here)
On the technique in general: A western blot detects proteins with antibodies after separation by electrophoresis.

We go through three molecules from PMC12921516 (ACS Bio & Med Chem Au, 2025).

By Ki is commonly meant a measure of affinity in units of concentration, obtained from inhibition or displacement. Read a high Ki as weaker binding. For orientation: Km means the concentration of substrate that gives half-maximal velocity. In general, Vmax refers to the rate approached at saturating substrate. In the case of `CC1(C)c2[nH]c3ccc(S(N)(=O)=O)cc3c2C[C@]2(C)[C@H]3C(=O)C=C4[C@@H]5C[C@@](C)(C(=O)O)CC[C@]5(C)CC[C@@]4(C)[C@]3(C)CC[C@@H]12` [compound 4g, (20β)-5′-Sulfamoyl-11-oxo-1′H-oleana-2,12-dieno[3,2-b]indol-29-oic Acid], on hPTP1B1–400, the inhibition type result is “uncompetitive”, the Ki was 1.62 ± 0.19 µM, the Km was determined as 870 ± 130 µM and the Vmax was found to be 1.46 ± 0.15 mM/min. Also, in the assay on HepG2 cells, the p-IRS levels result is listed as “slight but not statistically significant increase” and the p-STAT3 levels result is “slight but not statistically significant increase”.
For `CC1(C)c2c(cnn2-c2ccc(S(N)(=O)=O)cc2)C[C@]2(C)[C@H]3C(=O)C=C4[C@@H]5C[C@@](C)(C(=O)O)CC[C@]5(C)CC[C@@]4(C)[C@]3(C)CC[C@@H]12` [compound 5g, (20β)-11-Oxo-2′-(4-sulfamoylphenyl)-2′H-oleana-2,12-dieno[3,2-c]pyrazol-29-oic Acid], at hPTP1B1–400, the inhibition type entry is listed as “uncompetitive”, the Ki came to 0.72 ± 0.12 µM, the Michaelis constant (Km) was 970 ± 200 µM and the maximum rate (Vmax) is 1.34 ± 0.21 mM/min.
Regarding `CC1(C)c2[nH]c3ccc(OC(F)F)cc3c2C[C@]2(C)[C@H]3C(=O)C=C4[C@@H]5C[C@@](C)(C(=O)O)CC[C@]5(C)CC[C@@]4(C)[C@]3(C)CC[C@@H]12` [compound 4b, (20β)-5′-(Difluoromethoxy)-11-oxo-1′H-oleana-2,12-dieno[3,2-b]indol-29-oic Acid], at hPTP1B1–400, the inhibition type entry was “uncompetitive”, affinity was put at a Ki of 0.32 ± 0.05 µM, the Michaelis constant (Km) is 760 ± 170 µM and the Vmax is given as 1.24 ± 0.18 mM/min. The p-STAT3 levels entry in the assay on HepG2 cells is “only a minor increase”.
